{"source": "ChEMBL document CHEMBL4007459", "about": "“Design of Potent mRNA Decapping Scavenger Enzyme (DcpS) Inhibitors with Improved Physicochemical Properties To Investigate the Mechanism of Therapeutic Benefit in Spinal Muscular Atrophy (SMA)” (J Med Chem, 2017)", "key": {"[1]": {"experiment": "Drug uptake in HEK293 cells at 100 nM in presence of vacuolar type ATPase inhibitor bafilomycin measured after […]", "assay_type": "ADME, cell-based", "conditions": "human, 0.1 µM; call rule not given here"}, "[2]": {"experiment": "Drug uptake in lymphoblasts (unknown origin) at 100 nM in presence of vacuolar type ATPase inhibitor bafilomycin measured after […]", "assay_type": "ADME, cell-based", "conditions": "lymphoblast, 0.1 µM"}, "[3]": {"experiment": "Drug uptake in lymphoblasts (unknown origin) at 100 nM in presence of vacuolar type ATPase inhibitor concanamycin A measured after […]", "assay_type": "ADME, cell-based", "conditions": "lymphoblast, 0.1 µM"}, "[4]": {"experiment": "Drug uptake in HEK293 cells at 100 nM in presence of vacuolar type ATPase inhibitor concanamycin A measured after […]", "assay_type": "ADME, cell-based", "conditions": "human, 0.1 µM"}, "[5]": {"biological_target": "T1, Dihydrofolate reductase (Homo sapiens, UniProt P00374)", "T1 sequence (P00374 whole entry)": "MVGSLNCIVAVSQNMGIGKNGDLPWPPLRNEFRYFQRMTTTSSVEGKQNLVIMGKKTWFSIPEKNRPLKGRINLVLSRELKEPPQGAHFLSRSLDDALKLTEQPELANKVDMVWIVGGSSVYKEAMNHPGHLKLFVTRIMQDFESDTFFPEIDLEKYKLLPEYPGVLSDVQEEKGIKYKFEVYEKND", "experiment": "Inhibition of DHFR (unknown origin)"}, "[6]": {"experiment": "Drug uptake in lymphoblasts (unknown origin) at 10 nM in presence of vacuolar type ATPase inhibitor concanamycin A measured after […]", "assay_type": "ADME, cell-based", "conditions": "lymphoblast, 0.01 µM"}, "[7]": {"experiment": "Drug uptake in HEK293 cells at 10 nM in presence of vacuolar type ATPase inhibitor concanamycin A measured after […]", "assay_type": "ADME, cell-based", "conditions": "human, 0.01 µM"}, "[8]": {"experiment": "Drug uptake in HEK293 cells at 10 nM in presence of vacuolar type ATPase inhibitor bafilomycin measured after […]", "assay_type": "ADME, cell-based", "conditions": "human, 0.01 µM"}, "[9]": {"experiment": "Drug uptake in lymphoblasts (unknown origin) at 10 nM in presence of vacuolar type ATPase inhibitor bafilomycin measured after […]", "assay_type": "ADME, cell-based", "conditions": "lymphoblast, 0.01 µM"}, "[10]": {"experiment": "Stability in human liver microsomes at 1 uM", "assay_type": "ADME, microsome", "conditions": "read-out: Stability"}, "[11]": {"experiment": "Lipophilicity, log D of the compound at pH 7.4", "assay_type": "physicochemical", "conditions": "buffer"}, "[12]": {"experiment": "Apparent passive permeability across apical to basolateral side in RRCK2 cells at 2 uM", "assay_type": "ADME, cell-based, Canis lupus familiaris", "conditions": "dog, MDCK"}, "[13]": {"experiment": "Apparent intrinsic clearance in human liver microsomes at 1 uM", "assay_type": "ADME, microsome", "conditions": "read-out: CLH(app)"}, "[14]": {"experiment": "Kinetic solubility of the compound at pH 6.5", "conditions": "buffer"}, "[15]": {"biological_target": "T2, m7GpppX diphosphatase (Homo sapiens, UniProt Q96C86)", "T2 sequence (Q96C86 whole entry)": "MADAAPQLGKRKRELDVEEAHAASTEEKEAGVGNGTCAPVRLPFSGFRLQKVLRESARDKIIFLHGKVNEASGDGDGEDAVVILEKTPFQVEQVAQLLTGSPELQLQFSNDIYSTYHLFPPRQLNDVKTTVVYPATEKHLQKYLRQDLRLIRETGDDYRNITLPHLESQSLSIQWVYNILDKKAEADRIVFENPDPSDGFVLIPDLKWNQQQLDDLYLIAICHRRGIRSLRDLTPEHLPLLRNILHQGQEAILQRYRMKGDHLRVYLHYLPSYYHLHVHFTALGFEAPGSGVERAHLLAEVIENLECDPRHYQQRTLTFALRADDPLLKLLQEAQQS", "description": "Inhibition of human DcpS assessed as increase in SMN2 promoter activity"}, "[16]": {"tested_on": "Plasma", "experiment": "Unbound fraction in FVB/N mouse plasma at 30 mg/kg, ip", "assay_type": "ADME, organism-based", "conditions": "in vivo"}}}
{"molecule": "CCN(CC)CCCC(C)Nc1ccnc2cc(Cl)ccc12", "note": "(centres undefined) [CHLOROQUINE]", "values": [{"measurement": "Drug uptake", "setting": "[1]", "result": "Not Active"}, {"measurement": "Drug uptake", "setting": "[2]", "result": "Not Active"}, {"measurement": "Drug uptake", "setting": "[3]", "result": "Not Active"}, {"measurement": "Drug uptake", "setting": "[4]", "result": "Not Active"}]}
{"molecule": "COC[C@H](C)Oc1cccc2nc(N)nc(N)c12", "values": [{"measurement": "IC50", "setting": "[5]", "result": 1.4, "unit": "µM"}]}
{"molecule": "Nc1nc(N)c2c(OCC3CCN(Cc4c(F)cccc4Cl)CC3)cccc2n1", "values": [{"measurement": "Drug uptake", "setting": "[6]", "result": "Not Active"}, {"measurement": "Drug uptake", "setting": "[7]", "result": "Not Active"}, {"measurement": "Drug uptake", "setting": "[8]", "result": "Not Active"}, {"measurement": "Drug uptake", "setting": "[9]", "result": "Not Active"}]}
{"molecule": "Nc1nc(N)c2c(OCC3CCOCC3)cccc2n1", "values": [{"measurement": "IC50", "setting": "[5]", "result": 28, "unit": "µM"}]}
{"molecule": "Cc1ncccc1OCc1cccc2nc(N)nc(N)c12", "values": [{"measurement": "Drug uptake", "setting": "[6]", "result": "Not Active"}, {"measurement": "half-life at 1 µM", "setting": "[10]", "result": "> 120", "unit": "min"}, {"measurement": "logD", "setting": "[11]", "result": 1.4}, {"measurement": "IC50", "setting": "[5]", "result": "> 150", "unit": "µM"}, {"measurement": "Papp A→B at 2 µM", "setting": "[12]", "result": 18, "unit": "×10⁻⁶ cm/s"}, {"measurement": "microsomal CLint at 1 µM", "setting": "[13]", "result": "< 8", "unit": "µL/min/mg"}, {"measurement": "solubility kinetic", "setting": "[14]", "result": 274, "unit": "µM"}, {"measurement": "Drug uptake", "setting": "[7]", "result": "Not Active"}, {"measurement": "Drug uptake", "setting": "[8]", "result": "Not Active"}, {"measurement": "Drug uptake", "setting": "[9]", "result": "Not Active"}]}
{"molecule": "Nc1nc(N)c2c(OCC3CCN(Cc4ccccc4F)CC3)cccc2n1", "values": [{"measurement": "Drug uptake", "setting": "[6]", "result": "Not Active"}, {"measurement": "Drug uptake", "setting": "[7]", "result": "Not Active"}, {"measurement": "Drug uptake", "setting": "[8]", "result": "Not Active"}, {"measurement": "Drug uptake", "setting": "[9]", "result": "Not Active"}]}
{"molecule": "Cc1cc(OCC2CCOCC2)c2c(N)nc(N)nc2c1", "values": [{"measurement": "IC50", "setting": "[15]", "result": "> 10", "unit": "µM"}]}
{"molecule": "CC1(COc2cccc3nc(N)nc(N)c23)COC1", "values": [{"measurement": "IC50", "setting": "[5]", "result": 15, "unit": "µM"}]}
{"molecule": "Nc1nc(N)c2c(COc3cccc(F)c3)cccc2n1", "values": [{"measurement": "IC50", "setting": "[5]", "result": "> 50", "unit": "µM"}]}
{"molecule": "Nc1nc(N)c2c(COc3cccc(Cl)c3)cccc2n1", "values": [{"measurement": "IC50", "setting": "[5]", "result": 38, "unit": "µM"}]}
{"molecule": "Nc1nc(N)c2c(OCc3cc(F)cc(F)c3)cccc2n1", "values": [{"measurement": "IC50", "setting": "[5]", "result": 0.63, "unit": "µM"}]}
{"molecule": "Cc1cc(COc2cc(F)cc(C#N)c2)c2c(N)nc(N)nc2c1", "values": [{"measurement": "IC50", "setting": "[15]", "result": "> 10", "unit": "µM"}]}
{"molecule": "N#Cc1cc(F)cc(OCc2cccc3nc(N)nc(N)c23)c1", "values": [{"measurement": "half-life at 1 µM", "setting": "[10]", "result": "> 115", "unit": "min"}, {"measurement": "logD", "setting": "[11]", "result": 1.9}, {"measurement": "IC50", "setting": "[5]", "result": 52, "unit": "µM"}, {"measurement": "Papp A→B at 2 µM", "setting": "[12]", "result": 13, "unit": "×10⁻⁶ cm/s"}, {"measurement": "microsomal CLint at 1 µM", "setting": "[13]", "result": "< 8.4", "unit": "µL/min/mg"}, {"measurement": "Cp(f)", "setting": "[16]", "result": 173, "unit": "nM"}, {"measurement": "solubility kinetic", "setting": "[14]", "result": 31, "unit": "µM"}]}
{"molecule": "Nc1nc(N)c2c(COc3ccc(F)cc3F)cccc2n1", "values": [{"measurement": "IC50", "setting": "[5]", "result": "> 50", "unit": "µM"}]}
{"molecule": "Nc1nc(N)c2c(COc3ccccc3F)cccc2n1", "values": [{"measurement": "IC50", "setting": "[5]", "result": "> 30", "unit": "µM"}]}
{"molecule": "Nc1nc(N)c2c(OCC3CCN(Cc4c(Cl)cccc4Cl)CC3)cccc2n1", "values": [{"measurement": "Drug uptake", "setting": "[6]", "result": "Not Active"}, {"measurement": "half-life at 1 µM", "setting": "[10]", "result": 3, "unit": "min"}, {"measurement": "logD", "setting": "[11]", "result": 2.8}, {"measurement": "Papp A→B at 2 µM", "setting": "[12]", "result": 0.62, "unit": "×10⁻⁶ cm/s"}, {"measurement": "microsomal CLint at 1 µM", "setting": "[13]", "result": "> 250", "unit": "µL/min/mg"}, {"measurement": "solubility kinetic", "setting": "[14]", "result": 45, "unit": "µM"}, {"measurement": "Drug uptake", "setting": "[7]", "result": "Not Active"}, {"measurement": "Drug uptake", "setting": "[8]", "result": "Not Active"}, {"measurement": "Drug uptake", "setting": "[9]", "result": "Not Active"}]}
{"molecule": "COC[C@@H](C)Oc1cccc2nc(N)nc(N)c12", "values": [{"measurement": "IC50", "setting": "[5]", "result": 25, "unit": "µM"}]}
